Molecules are shown by their SMILES.

The test system of this test is renal allograft. The test is described as follows: Unilateral renal transplantation, mAb and sirolimus (Example 2). It counts as in vivo, monkey. The conditions noted are these: n=4 per group; treatment until day 56, followed until day 119.

Procedure: Unilateral renal transplantation was performed in 12 blood group matched and MLR mismatched animals. […] Sirolimus was administered by daily gavage at 1 mg/kg at day 0 to day 13 and then 0.5 mg/kg from day 13 to day 56. All animals were off immunosuppression after day 56 and were then followed until day 119.

`CO[C@H]1C[C@@H]2CC[C@@H](C)[C@@](O)(O2)C(=O)C(=O)N2CCCC[C@H]2C(=O)O[C@H]([C@H](C)C[C@@H]2CC[C@@H](O)[C@H](OC)C2)CC(=O)[C@H](C)/C=C(\C)[C@@H](O)[C@@H](OC)C(=O)[C@H](C)C[C@H](C)/C=C/C=C/C=C/1C` [sirolimus] gave a mean survival of 23 days.

Values taken from patent publication US20030161827A1, “Therapies that improve graft survival” (priority 2000, published 2003).
